Laboratory results as given in US20140171438A1, “Hybrid Compounds And Methods Of Making And Using The Same” (CELLCEUTIX CORPORATION, priority 2012, published 2014).
Values after ≈ are worked out from the molar mass of the structure shown. Read-outs that look alike come from different tables or passages of the source.

Assays:
[1] = Cytotoxicity, colorimetric tetrazolium assay; assay type: cell-based; conditions: one hour with compound in serum-free media
Protocol: Cytotoxicity of the compounds was evaluated in a colorimetric assay using a transformed human liver cell line (HepG2, HB-8065) and an embryonic mouse cell line (NIH/3T3 cells, CRL-1658). This assay measures the bioreduction of a novel tetrazolium compound to a soluble formazan product by viable cells. HepG2 cells were seeded in 96 well plates at 2×10^4 cells/well in MEM medium with 10% fetal bovine serum (FBS) for 24 hours prior to use. NIH/3T3 cells were seeded in 96 well plates at 2×10^4 cells/well in DMEM medium with 10% bovine calf serum (BCS) 24 hours prior to use. Cell monolayers were rinsed in serum-free media and incubated for one hour with the compound in serum-free media. After incubation, the media was replaced with serum supplemented media and live cells were measured using the Cell Titer 96 Aqueous […] (Promega, Madison, Wis.). EC50 values were determined using a four parameter logistic equation: Y=Bottom+(Top−Bottom)/(1+10̂((Log EC50−X)*HillSlope)). Actual results from a representative cytotoxicity assay are shown below in Table 2. Data is expressed as EC50 in μg/mL.

[2] = test system: Klebsiella pneumoniae ATCC 13883; experiment: Antimicrobial activity, MIC, modified microbroth dilution; assay type: cell-based; conditions: read-out: MIC (expressed as MIC50) K. Pnuemnoiae
Protocol: (§1) The compounds were screened for antimicrobial activity against a number of ATCC bacterial strains. Minimum Inhibitory Concentrations (MIC) of each of the compounds were determined using standard CLSI procedures modified by Hancock protocol against E. Coli ATCC 25922, Staphylococcus aureus ATCC 27660, Enterococcus faecalis ATCC 29212, Pseudomonas aeruginosa ATCC 10145, and Klebsiella pneumoniae ATCC 13883.
(§2) This procedure is a modification of the standard microbroth dilution assay recommended by the National Committee for Clinical Laboratory Standards (NCCLS) which has been developed for determining in vitro antimicrobial activities of cationic agents (Steinberg et al., Antimicrob. Agents Chemother., 1997, 41, 1738; and Yan et al., Antimicrob. Agents Chemother., 2001, 45, 1558). The modifications were made to minimize loss of the antimicrobial agent due to adsorption onto glass or plastic surfaces and by precipitation at high concentrations.
(§3) Three mL of Mueller-Hinton II Broth (cation-adjusted) was inoculated with 5 μL of frozen bacterial stock and incubated at 37° C. on a shaker platform (at 250 rpm) overnight. Compound stock solutions were prepared in DMSO and serial two-fold dilutions of compound were made in 0.01% acetic acid, 0.2% bovine serum albumin directly in the wells of the polypropylene plate at 10 μL/well. […] All samples were performed in duplicate. The overnight bacteria suspension was diluted to approximately 10^6 cfu/mL and inoculated into a polypropylene (Costar) 96-well round bottom plate (90 μL volumes). One set of control wells included broth-only samples with dilution buffer for testing sterility and providing blank values for the assay readings. Vehicle-control wells containing the bacterial suspension with DMSO (no compound) were also included. Following the overnight incubation (18 hours), cell growth was assessed by observing the presence of “acceptable growth”, defined by NCCLS as a ≧2 mm button or definite turbidity.
(§4) Actual results from a representative MIC assay are shown below in Table 1. Data is expressed as MIC50 in μg/mL. The bacterial isolates were as follows: E. coli (25922); S. aureus (27660); E. faecalis (29212); P. aeruginosa (10145); and K. pneumoniae (13883).

[3] = test system: Enterococcus faecalis ATCC 29212; experiment: as above; assay type: cell-based; conditions: read-out: MIC (expressed as MIC50) E. faecalis
Protocol: as §1, §2, §3, §4

E. Coli ATCC 25922 = experiment: as above; assay type: cell-based; conditions: Escherichia coli, read-out: MIC (expressed as MIC50) E. coli
Protocol: as §1, §2, §3, §4

[4] = test system: Staphylococcus aureus ATCC 27660; experiment: as above; assay type: cell-based; conditions: read-out: MIC (expressed as MIC50) S. aureus
Protocol: as §1, §2, §3, §4

[5] = test system: Pseudomonas aeruginosa ATCC 10145; experiment: as above; assay type: cell-based; conditions: read-out: MIC (expressed as MIC50) P. Aeruginosa
Protocol: as §1, §2, §3, §4

MRSA ATCC 33591 = experiment: Anti-biofilm activity, minimum biofilm eradication concentration (MBEC); assay type: cell-based, Staphylococcus aureus; conditions: MRSA ATCC 33591 biofilm on filter paper disks; 24 hours challenge
Protocol: The in vitro activity against biofilm was carried out by following the protocol for biofilm development and challenge using filter paper disks and 24-well plates. On day one, a tryptic soy agar plate (TSA) was streaked for MRSA isolation. On the second day a single colony of MRSA was grown in about 5 mL of tryptic soy broth (TSB). Filter papers were punched and autoclaved in 96-well plate. On the third day, a single filter paper disk was placed in each well of 24-well plate. The plate was inoculated with 300 μL/well of 0.01 adjusted OD600 bacteria inoculum in TSB supplemented with 1% glucose and 1.6% NaCl. The cells were allowed to grow for 48 hours on a shaker at 37° C. On day five, the challenge plate(s) were made in a 24-well plate(s), using eppendorf tubes to make dilutions and aliquoted into designated wells. The wash plates were filled in each well of a 24-well plate with 500 μL 0.9% saline. The disks were removed with forceps from the growth plate to the wash plate to challenge plate, flaming in between or where needed. Once disks are in challenge plate, incubated for 24 hours on shaker at 37° C. […] On day seven, the colonies were counted.
The actual MBEC of Compound 113 against MRSA ATCC 33591 was determined to be 32 μg/mL.

[6] = mouse, NIH/3T3 cells (CRL-1658)
[7] = ATCC13883, K. pneumoniae (13883), 18 hours incubation
[8] = ATCC29212, E. faecalis (29212), 18 hours incubation
[9] = ATCC25922, E. coli (25922), 18 hours incubation
[10] = ATCC27660, S. aureus (27660), 18 hours incubation
[11] = ATCC10145, P. aeruginosa (10145), 18 hours incubation

Compound	MIC50 [2, 7]	MIC50 [3, 8]	MIC50 (E. Coli ATCC 25922; [9])	MIC50 [4, 10]	MIC50 [5, 11]	EC50 at 1 h ([1]; human, HepG2 cells (HB-8065))	EC50 at 1 h [1, 6]	MIC50 ([2]; ATCC13883, 18 h)	MIC50 ([3]; ATCC29212, 18 h)	MIC50 (E. Coli ATCC 25922; ATCC25922, 18 h)	MIC50 ([4]; ATCC27660, 18 h)	MIC50 ([5]; ATCC10145, 18 h)	MBEC (MRSA ATCC 33591)
N=C(N)NCCCCC(=O)Nc1cc(C(F)(F)F)cc(NC(=O)Nc2ccc(Oc3cc([N+](=O)[O-])cc(C(F)(F)F)c3)cc2)c1O[C@@H]1CCNC1 [Compound 101, [3-[4-[[3-(5-guanidinopentanoylamino)-2-[(3R)-pyrrolidin-3-yl]oxy-5-(trifluoromethyl)phenyl]carbamoylamino]phenoxy]-5-(trifluoromethyl)phenyl]azinic acid]						> 1000 µg/mL	> 1000 µg/mL	100 µg/mL (≈ 138 µM)	100 µg/mL (≈ 138 µM)	> 100 µg/mL	50 µg/mL (≈ 68.8 µM)	> 100 µg/mL	
NCCCc1cc(NC(=O)Nc2cc(C(F)(F)F)c(SCCN)cc2SCCN)ccc1Oc1ccc(NCCN)c(C(F)(F)F)c1 [Compound 113, 1-[4-[4-(2-aminoethylamino)-3-(trifluoromethyl)phenoxy]-3-(3-aminopropyl)phenyl]-3-[2,4-bis(2-aminoethylsulfanyl)-5-(trifluoromethyl)phenyl]urea]	3.13 µg/mL (≈ 4.43 µM)	0.78 µg/mL (≈ 1.11 µM)	3.13 µg/mL (≈ 4.43 µM)	1.56 µg/mL (≈ 2.21 µM)	3.13 µg/mL (≈ 4.43 µM)	191 µg/mL (≈ 271 µM)	142 µg/mL (≈ 201 µM)						32 µg/mL
N=C(N)NCCCCC(=O)Nc1cc(C(F)(F)F)cc(NC(=O)Nc2ccc(Oc3ccc(NCCN)c(C(F)(F)F)c3)c(CCCN)c2)c1O[C@@H]1CCNC1 [Compound 109, N-[3-[[4-[4-(2-aminoethylamino)-3-(trifluoromethyl)phenoxy]-3-(3-aminopropyl)phenyl]carbamoylamino]-2-[(3R)-pyrrolidin-3-yl]oxy-5-(trifluoromethyl)phenyl]-5-guanidino-pentanamide]	6.25 µg/mL (≈ 7.84 µM)	1.56 µg/mL (≈ 1.96 µM)	6.25 µg/mL (≈ 7.84 µM)	3.13 µg/mL (≈ 3.93 µM)	12.5 µg/mL (≈ 15.7 µM)	409 µg/mL (≈ 513 µM)	256 µg/mL (≈ 321 µM)						

Further lines, with some results ahead:

MIC50 [2, 7]	MIC50 [3, 8]	MIC50 (E. Coli ATCC 25922; [9])	MIC50 [4, 10]	MIC50 [5, 11]	Compound	EC50 at 1 h ([1]; human, HepG2 cells (HB-8065))	EC50 at 1 h [1, 6]	MIC50 ([2]; ATCC13883, 18 h)	MIC50 ([3]; ATCC29212, 18 h)	MIC50 (E. Coli ATCC 25922; ATCC25922, 18 h)	MIC50 ([4]; ATCC27660, 18 h)	MIC50 ([5]; ATCC10145, 18 h)	MBEC (MRSA ATCC 33591)
50 µg/mL (≈ 69.8 µM)	50 µg/mL (≈ 69.8 µM)	50 µg/mL (≈ 69.8 µM)	25 µg/mL (≈ 34.9 µM)	50 µg/mL (≈ 69.8 µM)	N=C(N)NCCCCC(=O)Nc1cc(C(F)(F)F)cc(NC(=O)Nc2ccc(Oc3cc([N+](=O)[O-])cc(C(F)(F)F)c3)cc2)c1SCCN [Compound 100, (4-(2-(2-aminoethylthio)-3-(3-(4-(3-(trifluoromethyl)-5-nitrophenoxy)phenyl)ureido)-5-(trifluoromethyl)phenylcarbamoyl)butyl)guanidine]	396 µg/mL (≈ 553 µM)	56.2 µg/mL (≈ 78.4 µM)						
3.13 µg/mL (≈ 4.45 µM)	1.56 µg/mL (≈ 2.22 µM)	1.56 µg/mL (≈ 2.22 µM)	0.098 µg/mL (≈ 0.139 µM)	6.25 µg/mL (≈ 8.89 µM)	N=C(N)NCCCC(=O)Nc1cc(C(F)(F)F)cc(NC(=O)Nc2ccc3nc(-c4ccc(NCCCN)cc4)sc3c2)c1SCCN [Compound 110, N-[2-(2-aminoethylsulfanyl)-3-[[2-[4-(3-aminopropylamino)phenyl]-1,3-benzothiazol-6-yl]carbamoylamino]-5-(trifluoromethyl)phenyl]-4-guanidino-butanamide]	49.9 µg/mL (≈ 71 µM)	50.7 µg/mL (≈ 72.1 µM)						
3.13 µg/mL (≈ 4.23 µM)	3.13 µg/mL (≈ 4.23 µM)	3.13 µg/mL (≈ 4.23 µM)	0.049 µg/mL (≈ 0.0662 µM)	6.25 µg/mL (≈ 8.45 µM)	N=C(N)NCCCCC(=O)Nc1cc(C(F)(F)F)cc(NC(=O)Nc2ccc(Oc3cc(NCCN)cc(C(F)(F)F)c3)cc2)c1O[C@@H]1CCNC1 [Compound 104]	148 µg/mL (≈ 200 µM)	82.7 µg/mL (≈ 112 µM)						
